Common to all, as to format: cell-based, human
For experiment [1], the system named is CYCLIN K. Briefly: CYCLIN K nuclear protein level: immunofluorescence/high content analysis in CAL-120 cells. Particulars: 24 h, nuclear CCNK staining intensity, median, read-out: CYCLIN K degradation IF, DC50 - [mol/l] (median). Here is the method: CAL-120 human breast cancer cells (DSMZ ACC 459) are seeded in 1536-well microtiter plates (800 cells per well) containing 50 nanoL of compounds in Dose-Response. Control wells received DMSO or Example 4. Plates are then incubated for 24 h at 37° C. in an humidified incubator and fixed with 4% PFA for 10 min. Then immunofluorescence (IF) against CYCLIN K (ThermoFisher Scientific CCNK Antibody #PA5-85020, rabbit, 1:200 dilution) is performed using standard IF protocols. Cells are then stained with Hoechst 33342 (Life Technologies, H-1399, 0.1 microg/ml) and imaged on an automated confocal microscopy system (e.g. Perkin Elmer Opera Phenix). Nuclear and cytoplasmic intensity as well as the nuclear/cytoplasmic intensity ratio is determined by automated image analysis using custom generated scripts (MetaXpress). Data is then transferred to Genedata Screener software, normalized to DMSO and control and DC50 values (degrading concentration to achieve 50% reduction of nuclear CCNK staining intensity relative to controls) are reported.

For experiment [2], the system named is CAL-120-CDK12d-res. Kind of experiment: Proliferation assay CDK12 degrader resistant CAL-120. Particulars: for IC50: Homo sapiens, 96 h, CDK12 degrader resistant CAL-120 cells, 4 days, median, read-out: Prolif-CAL-120-CDK12d-res, IC50 - [mol/l] (median); for Ratio (Prolif-CAL-120-CDK12d-res IC50 / Prolif-CAL-120 IC50): resistant versus parental CAL-120 cells. An excerpt: (§1) CDK12-degrader resistant cells were generated by propagation of CAL-120 human breast adenocarcinoma cells (DSMZ ACC-459) and MDA-MB-231 human breast cancer cells (ATCC HTB-26) in presence of increasing concentrations of the CDK12 degrader compound example 4 from WO 2021/116178. Initial concentrations of example 4 were 2.0E-08 M for CAL-120 cells and 4.6E-08 M for MDA-MB-231 cells, corresponding to ca. 2-fold the IC50 of inhibition of the cells in an proliferation assay. After the treated cells recovered and proliferated again the concentration of compound example 4 was increased to 3-fold IC50.
(§2) To determine the inhibitory effect of test compounds on proliferation of CAL-120-CDK12d-res, MDA-MB-231-CDK12d-res the cells were plated at a density of 4,000 cells/well in a 96-well multitier plate in 200 microL of their respective growth medium supplemented 10% fetal calf serum. After 24 hours, the cells of one plate (zero-point plate) were stained with crystal violet (see below), while the medium of the other plates was supplemented with the test substances in various concentrations (0 micromol/L, as well as in the range of 0.01-10 micromol/L; the final concentration of the solvent dimethyl sulfoxide was adjusted to 0.1%) using a Tecan HP D300 Digital Dispenser. The cells were incubated for 4 days in the presence of test substances. Cell proliferation was determined by staining the cells with crystal violet: the cells were fixed by adding 20 microL/measuring point of an 11% glutaric aldehyde solution for 15 minutes at room temperature. After three washing cycles of the fixed cells with water, the plates were dried at room temperature. The cells were stained by adding 100 microL/measuring point of a 0.1% crystal violet solution (pH 3.0). After three washing cycles of the stained cells with water, the plates were dried at room temperature. The dye was dissolved by adding 100 microL/measuring point of a 10% acetic acid solution. The extinction was determined by photometry at a wavelength of 595 nm. The change of cell number, in percent, was calculated by normalization of the measured values to the extinction values of the zero-point plate (=0%) and the extinction of the untreated (0 μM) cells (=100%). The IC50 values (inhibitory concentration at 50% of maximal effect) were determined by means of a 4 parameter fit.

For experiment [3], the system named is MDA-MB-231-CDK12d-res. Kind of experiment: Proliferation assay CDK12 degrader resistant MDA-MB-231. Particulars: for IC50: Homo sapiens, 96 h, CDK12 degrader resistant MDA-MB-231 cells, 4 days, median, read-out: Prolif-MDA MB-231-CDK12d-res, IC50 - [mol/] (median); for Ratio (Prolif-MDA MB-231-CDK12d-res IC50 / Prolif-MDA MB-231 IC50): resistant versus parental MDA-MB-231 cells.
Description: as §1, §2

Structures are written as SMILES.

In the case of `FC(F)(F)Oc1ccc(-c2nnc(CNc3nc(N4CCOCC4)nc4c(C(F)(F)F)cnn34)[nH]2)cc1` [Example 5, 2-(morpholin-4-yl)-N-({5-[4-(trifluoromethoxy)phenyl]-4H-1,2,4-triazol-3-yl}methyl)-8-(trifluoromethyl)pyrazolo[1,5-a][1,3,5]triazin-4-amine], the DC50 in experiment [1] is > 1 µM.

With `FC(F)(F)c1ccc(-c2nnc(CNc3nc(N4CCOCC4)nc4c(C(F)(F)F)cnn34)[nH]2)cc1` [Example 6, 2-(morpholin-4-yl)-8-(trifluoromethyl)-N-({5-[4-(trifluoromethyl)phenyl]-4H-1,2,4-triazol-3-yl}methyl)pyrazolo[1,5-a][1,3,5]triazin-4-amine], the DC50 in experiment [1] was > 1 µM.

In the case of `FC(F)(F)c1ccc(-c2cnc(CNc3nc(N4CCOCC4)nc4c(C(F)(F)F)cnn34)[nH]2)cc1` [Example 9, 2-(morpholin-4-yl)-8-(trifluoromethyl)-N-({5-[4-(trifluoromethyl)phenyl]-1H-imidazol-2-yl}methyl)pyrazolo[1,5-a][1,3,5]triazin-4-amine], in experiment [2], the IC50 is 0.105 µM and the “Ratio (Prolif-CAL-120-CDK12d-res IC50 / Prolif-CAL-120 IC50)” value is given as 1.0. In experiment [3], the IC50 was determined as 0.15 µM and the “Ratio (Prolif-MDA MB-231-CDK12d-res IC50 / Prolif-MDA MB-231 IC50)” value stood at 0.8.

As to `FC(F)(F)Oc1ccc(-c2cnc(CNc3nc(N4CCOCC4)nc4c(C(F)(F)F)cnn34)[nH]2)cc1` [Example 10, 2-(morpholin-4-yl)-N-({5-[4-(trifluoromethoxy)phenyl]-1H-imidazol-2-yl}methyl)-8-(trifluoromethyl)pyrazolo[1,5-a][1,3,5]triazin-4-amine], in experiment [2], the IC50 is 0.139 µM and the “Ratio (Prolif-CAL-120-CDK12d-res IC50 / Prolif-CAL-120 IC50)” value stood at 2.0. In experiment [3], the IC50 turned out to be 0.156 µM and the “Ratio (Prolif-MDA MB-231-CDK12d-res IC50 / Prolif-MDA MB-231 IC50)” value was 1.3. For the same molecule, the DC50 in experiment [1] turned out to be 0.228 µM.

Consider `FC(F)(F)c1ccc(-c2nnc(CNc3nc(N4CCOCC4)nn4c(C(F)(F)F)cnc34)[nH]2)cc1` [Example 11, 2-(morpholin-4-yl)-7-(trifluoromethyl)-N-({5-[4-(trifluoromethyl)phenyl]-4H-1,2,4-triazol-3-yl}methyl)imidazo[2,1-f][1,2,4]triazin-4-amine], for which the DC50 in experiment [1] is > 1 µM.

Turning to `FC(F)(F)c1ccc(-c2cnc(CNc3nc(N4CCOCC4)nn4c(C(F)(F)F)cnc34)[nH]2)cn1` [Example 12, 2-(morpholin-4-yl)-7-(trifluoromethyl)-N-({5-[6-(trifluoromethyl)pyridin-3-yl]-1H-imidazol-2-yl}methyl)imidazo[2,1-f][1,2,4]triazin-4-amine], in experiment [2], the IC50 was found to be 0.0221 µM and the “Ratio (Prolif-CAL-120-CDK12d-res IC50 / Prolif-CAL-120 IC50)” value stood at 1.5. In addition, in experiment [3], the IC50 came out at 0.031 µM and the “Ratio (Prolif-MDA MB-231-CDK12d-res IC50 / Prolif-MDA MB-231 IC50)” value was found to be 1.4.

As for `COc1ccc(-c2nnc(CNc3nc(N4CCOCC4)nc4c(C(F)(F)F)cnn34)[nH]2)cn1` [Example 15, N-{[5-(6-methoxypyridin-3-yl)-4H-1,2,4-triazol-3-yl]methyl}-2-(morpholin-4-yl)-8-(trifluoromethyl)pyrazolo[1,5-a][1,3,5]triazin-4-amine], in experiment [1], the DC50 was > 1 µM.

`COc1ccc(-c2nnc(CNc3nc(N4CCOCC4)nn4c(C(F)(F)F)cnc34)[nH]2)cn1` [Example 18, N-{[5-(6-methoxypyridin-3-yl)-4H-1,2,4-triazol-3-yl]methyl}-2-(morpholin-4-yl)-7-(trifluoromethyl)imidazo[2,1-f][1,2,4]triazin-4-amine]: in experiment [2], the IC50 came out at 0.252 µM and the “Ratio (Prolif-CAL-120-CDK12d-res IC50 / Prolif-CAL-120 IC50)” value turned out to be 2.4. Also, in experiment [3], the IC50 was 0.288 µM and the “Ratio (Prolif-MDA MB-231-CDK12d-res IC50 / Prolif-MDA MB-231 IC50)” value came out at 4.0. Besides, in experiment [1], the DC50 was > 1 µM.

Turning to `FC(F)(F)Oc1ccc(-c2nnc(CNc3nc(N4CCOCC4)nn4c(C(F)(F)F)cnc34)[nH]2)cn1` [Example 19, 2-(morpholin-4-yl)-N-({5-[6-(trifluoromethoxy)pyridin-3-yl]-4H-1,2,4-triazol-3-yl}methyl)-7-(trifluoromethyl)imidazo[2,1-f][1,2,4]triazin-4-amine], in experiment [2], the IC50 was 0.0971 µM and the “Ratio (Prolif-CAL-120-CDK12d-res IC50 / Prolif-CAL-120 IC50)” value amounted to 1.5. Besides, in experiment [3], the IC50 was 0.103 µM and the “Ratio (Prolif-MDA MB-231-CDK12d-res IC50 / Prolif-MDA MB-231 IC50)” value was determined as 2.7.

In the case of `FC(F)(F)c1ccc(-c2nnc(CNc3nc(N4CCOCC4)nn4c(C(F)(F)F)cnc34)[nH]2)cn1` [Example 20, 2-(morpholin-4-yl)-7-(trifluoromethyl)-N-({5-[6-(trifluoromethyl)pyridin-3-yl]-4H-1,2,4-triazol-3-yl}methyl)imidazo[2,1-f][1,2,4]triazin-4-amine], in experiment [2], the IC50 came out at 0.118 µM and the “Ratio (Prolif-CAL-120-CDK12d-res IC50 / Prolif-CAL-120 IC50)” value came out at 1.4. Moreover, in experiment [3], the IC50 is 0.155 µM and the “Ratio (Prolif-MDA MB-231-CDK12d-res IC50 / Prolif-MDA MB-231 IC50)” value is recorded as 2.9. Also, in experiment [1], the DC50 was > 1 µM.

Regarding `Cc1ccc(-c2nnc(CNc3nc(N4CCOCC4)nn4c(C(F)(F)F)cnc34)[nH]2)cn1` [Example 23, N-{[5-(6-methylpyridin-3-yl)-4H-1,2,4-triazol-3-yl]methyl}-2-(morpholin-4-yl)-7-(trifluoromethyl)imidazo[2,1-f][1,2,4]triazin-4-amine], the DC50 in experiment [1] turned out to be 0.124 µM.

For the molecule `FC(F)(F)c1ccc(-c2cnc(CNc3nc(N4CCOCC4)nc4c(C(F)(F)F)cnn34)[nH]2)cn1` [Example 24, 2-(morpholin-4-yl)-8-(trifluoromethyl)-N-({5-[6-(trifluoromethyl)pyridin-3-yl]-1H-imidazol-2-yl}methyl)pyrazolo[1,5-a][1,3,5]triazin-4-amine], in experiment [2], the IC50 is 0.0407 µM and the “Ratio (Prolif-CAL-120-CDK12d-res IC50 / Prolif-CAL-120 IC50)” value is on record as 1.3. In experiment [3], the IC50 turned out to be 0.0626 µM and the “Ratio (Prolif-MDA MB-231-CDK12d-res IC50 / Prolif-MDA MB-231 IC50)” value turned out to be 2.9. Also, the DC50 in experiment [1] is > 1 µM.
